Reference: publication PMC4723341, “Ribonuclease H/DNA Polymerase HIV-1 Reverse Transcriptase Dual Inhibitor: Mechanistic Studies on the Allosteric Mode of Action of Isatin-Based Compound RMNC6” (PLoS ONE, 2016)
Where “and” joins values, the source holds several entries; their conditions need not be identical. Equal entries are not always repeated. Where two headings read alike, the source gives them in different places.

What was measured:
[1] = target: T1, HIV-1 RT-associated RNase H activity, P225A RT (Human immunodeficiency virus type 1 group M subtype B, UniProt P04585, P812A); assay: RNase H activity assay, P225A RT; type: biochemical, HIV-1 group M subtype B; settings: for Fold of increase of RNase H IC50 with respect to wt RT: P225A RT
T1 construct: The 1:1 ration between the p66/p51 subunits was also verified; made in house; host or cells: E. coli M15
Procedure: (§1) HIV RT-associated RNase H activity was measured as described in 100 μL reaction volume containing 50 mM Tris-HCl buffer pH 7.8, 6 mM MgCl2, 1 mM dithiothreitol (DTT), 80 mM KCl, 0.25 μM hybrid RNA/DNA 5'-GAUCUGAGCCUGGGAGCU-Fluorescin-3' (HPLC, dry, QC: Mass Check) (available from Metabion) 5'-Dabcyl-AGCTCCCAGGCTCAGATC-3'(HPLC, dry, QC: Mass Check), increasing concentrations of inhibitors, whose dilution were made in water, and different amount of enzymes according to a linear range of dose-response curve: 20 ng of WT RT; 60 ng K103N RT; 37.5 ng V106A RT; 75 ng V108A RT; 5 ng Y181C RT; 50 ng Y188A RT; 30 ng Y188L RT; 100 ng E224A RT; 37.5 ng P225A RT; 20 ng P226A RT; 18 ng F227A RT; 30 ng L228A RT; 30 ng W229A RT; 10 ng M230A RT; 30 ng G231A RT; 62.5 ng N474A RT; 1 μg Y501A RT; 100 ng A502F RT; 37.5 ng A508V RT; 38 ng HIV-1 group O RT. The reaction mixture was incubated for 1 h at 37°C, stopped by addition of EDTA and products were measured with a multilabel counter plate reader Victor 3 (Perkin Elmer model 1420–051) equipped with filters for 490/528 nm (excitation/emission wavelength)

[2] = target: T2, HIV-1 RT-associated RNase H activity, W229A RT (Human immunodeficiency virus type 1 group M subtype B, UniProt P04585, W816A); assay: RNase H activity assay, W229A RT; type: biochemical, HIV-1 group M subtype B; settings: for Fold of increase of RNase H IC50 with respect to wt RT: W229A RT
T2 construct: The 1:1 ration between the p66/p51 subunits was also verified; made in house; host or cells: E. coli M15
Procedure: as §1

[3] = target: T3, HIV-1 RT-associated RNase H activity, V108A RT (Human immunodeficiency virus type 1 group M subtype B, UniProt P04585, V695A); assay: RNase H activity assay, V108A RT; type: biochemical, HIV-1 group M subtype B
T3 construct: The 1:1 ration between the p66/p51 subunits was also verified; made in house; host or cells: E. coli M15
Procedure: as §1

[4] = target: T4, HIV-1 RT-associated RNase H activity, K103N RT (Human immunodeficiency virus type 1 group M subtype B, UniProt P04585, K690N); assay: RNase H activity assay, K103N RT; type: biochemical, HIV-1 group M subtype B
T4 construct: The 1:1 ration between the p66/p51 subunits was also verified; made in house; host or cells: E. coli M15
Procedure: as §1

[5] = target: T5, HIV-1 RT-associated RNase H activity, E224A RT (Human immunodeficiency virus type 1 group M subtype B, UniProt P04585, E811A); assay: RNase H activity assay, E224A RT; type: biochemical, HIV-1 group M subtype B; settings: for Fold of increase of RNase H IC50 with respect to wt RT: E224A RT
T5 construct: The 1:1 ration between the p66/p51 subunits was also verified; made in house; host or cells: E. coli M15
Procedure: as §1

[6] = target: T6, HIV-1 RT-associated RNase H activity, V106A RT (Human immunodeficiency virus type 1 group M subtype B, UniProt P04585, V693A); assay: RNase H activity assay, V106A RT; type: biochemical, HIV-1 group M subtype B
T6 construct: The 1:1 ration between the p66/p51 subunits was also verified; made in house; host or cells: E. coli M15
Procedure: as §1

[7] = target: T7, HIV-1 RT-associated RNase H activity, L228A RT (Human immunodeficiency virus type 1 group M subtype B, UniProt P04585, L815A); assay: RNase H activity assay, L228A RT; type: biochemical, HIV-1 group M subtype B; settings: for Fold of increase of RNase H IC50 with respect to wt RT: L228A RT
T7 construct: The 1:1 ration between the p66/p51 subunits was also verified; made in house; host or cells: E. coli M15
Procedure: as §1

[8] = target: T8, HIV-1 RT-associated RNase H activity, Y188A RT (Human immunodeficiency virus type 1 group M subtype B, UniProt P04585, Y775A); assay: RNase H activity assay, Y188A RT; type: biochemical, HIV-1 group M subtype B; settings: for Fold of increase of RNase H IC50 with respect to wt RT: Y188A RT
T8 construct: The 1:1 ration between the p66/p51 subunits was also verified; made in house; host or cells: E. coli M15
Procedure: as §1

p66/p51 HIV-1 RT = target: T9, p66/p51 HIV-1 RT (Human immunodeficiency virus type 1 group M subtype B, UniProt P04585); assay: Thermal stability by differential scanning fluorimetry; type: binding; settings: increasing concentrations of inhibitor
T9 construct: The 1:1 ration between the p66/p51 subunits was also verified; made in house; host or cells: E. coli M15
Procedure: Thermal stability assays were performed according to Nettleship et al.. […] The mixture was heated from 30 to 90°C in increments of 0.2°C. Fluorescence intensity was measured using excitation and emission wavelengths of 483 and 568 nm, respectively. Changes in protein thermal stability (ΔTm) upon inhibitor binding were analyzed by using the LightCycler 480 software. All assays were performed in triplicate.

[9] = target: T10, HIV-1 RT-associated RNase H activity, Y181C RT (Human immunodeficiency virus type 1 group M subtype B, UniProt P04585, Y768C); assay: RNase H activity assay, Y181C RT; type: biochemical, HIV-1 group M subtype B
T10 construct: The 1:1 ration between the p66/p51 subunits was also verified; made in house; host or cells: E. coli M15
Procedure: as §1

[10] = target: T11, HIV-1 RT-associated RNase H activity, M230A RT (Human immunodeficiency virus type 1 group M subtype B, UniProt P04585, M817A); assay: RNase H activity assay, M230A RT; type: biochemical, HIV-1 group M subtype B
T11 construct: The 1:1 ration between the p66/p51 subunits was also verified; made in house; host or cells: E. coli M15
Procedure: as §1

[11] = system: HIV-1 RT-associated RNase H activity, M230A RT; assay: RNase H activity assay, M230A RT; type: biochemical, HIV-1 group M subtype B; settings: M230A RT
Procedure: as §1

[12] = target: T12, HIV-1 RT-associated RNase H activity, P226A RT (Human immunodeficiency virus type 1 group M subtype B, UniProt P04585, P813A); assay: RNase H activity assay, P226A RT; type: biochemical, HIV-1 group M subtype B
T12 construct: The 1:1 ration between the p66/p51 subunits was also verified; made in house; host or cells: E. coli M15
Procedure: as §1

[13] = target: T13, HIV-1 RT-associated RDDP activity, G231A RT (Human immunodeficiency virus type 1 group M subtype B, UniProt P04585, G818A); assay: biochemical; parameters: species or system HIV-1 group M subtype B
T13 construct: The 1:1 ration between the p66/p51 subunits was also verified; made in house; host or cells: E. coli M15

[14] = target: T14, HIV-1 RT-associated RDDP activity, Y188L RT (Human immunodeficiency virus type 1 group M subtype B, UniProt P04585, Y775L); assay: RDDP activity assay, Y188L RT; type: biochemical, HIV-1 group M subtype B
T14 construct: The 1:1 ration between the p66/p51 subunits was also verified; made in house; host or cells: E. coli M15

[15] = target: T15, HIV-1 RT-associated RDDP activity, M230A RT (Human immunodeficiency virus type 1 group M subtype B, UniProt P04585, M817A); assay: biochemical; parameters: species or system HIV-1 group M subtype B
T15 construct: The 1:1 ration between the p66/p51 subunits was also verified; made in house; host or cells: E. coli M15

[16] = system: HIV-1 RT-associated RDDP activity, M230A RT; assay: biochemical; parameters: species or system HIV-1 group M subtype B; settings: M230A RT
[17] = target: T16, HIV-1 RT-associated RDDP activity, Y181C RT (Human immunodeficiency virus type 1 group M subtype B, UniProt P04585, Y768C); assay: RDDP activity assay, Y181C RT; type: biochemical, HIV-1 group M subtype B
T16 construct: The 1:1 ration between the p66/p51 subunits was also verified; made in house; host or cells: E. coli M15

Structure (SMILES)	IC50 [1]	Fold of increase of RNase H IC50 with respect to wt RT [1]	IC50 [2]	Fold of increase of RNase H IC50 with respect to wt RT [2]	IC50 [3]	IC50 [5]	Fold of increase of RNase H IC50 with respect to wt RT [5]	IC50 [6]	IC50 [7]	Fold of increase of RNase H IC50 with respect to wt RT [7]	IC50 [8]	Fold of increase of RNase H IC50 with respect to wt RT [8]	IC50 [10]	Fold of increase of RNase H IC50 with respect to wt RT [11]	IC50 [12]	further results
CC(C)c1ccc(O)c(=O)c(O)c1 [BTP, β-thujaplicinol, reference compound]	130 ± 60 nM	0.7	150 ± 80 nM	0.8	180 ± 40 nM	150 ± 30 nM	0.8	160 ± 30 nM	100 ± 60 nM	0.5	190 ± 80 nM	1.0	140 ± 40 nM	0.7	290 ± 80 nM	IC50 ([4]; K103N RT, read-out: IC50 RNase H): 220 ± 80 nM; Tm increase of HIV-1 RT (p66/p51 HIV-1 RT; in the presence of Mg2+): < 2.0 °C; IC50 ([9]; Y181C RT, read-out: IC50 RNase H): 230 ± 50 nM
N#Cc1ccc(-c2csc(NN=C3C(=O)Nc4ccccc43)n2)cc1 [RMNC6, (Z)-4-(2-(2-(2-oxoindolin-3-ylidene)hydrazinyl)thiazol-4-yl)benzonitrile]	1700 ± 200 nM	1.3	1900 ± 500 nM	1.5	13100 ± 2500 nM	7900 ± 1100 nM	6 and 6.1	5300 ± 600 nM	1500 ± 100 nM	1.1	3300 ± 1500 nM	2.5	500 ± 100 nM	0.4	1900 ± 100 nM	IC50 [13]: 10800 ± 2400 nM; Fold of increase of RDDP IC50 with respect to wt RT ([13]; G231A RT): 1.1; IC50 [4]: 2300 ± 100 nM; IC50 [14]: 16500 ± 3700 nM; IC50 [15]: 15000 ± 3500 nM; Fold of increase of RDDP IC50 with respect to wt RT [16]: 1.5; Effect on RT thermal stability (p66/p51 HIV-1 RT): did not affect significantly; IC50 [9]: 2100 ± 600 nM; IC50 [17]: 5400 ± 300 nM
